Test results published in patent US12590100B2, “Tetrahydro-spiroindoline-pyrrolopyrrole-triones inhibitors of the NRF2-β-TrCP interaction for use in the treatment of fatty liver disease” (Universidad Autonoma De Madrid, priority 2021, dated 2026).
“Also recorded” adds a separate entry of the source.

Key:
[1] = system: NRF2; assay: NRF2 and HO-1 protein levels in mouse tissues after IP treatment; type: in vivo; conditions: C57BL/6 mice
Protocol: FIG. 9. PHAR activates NRF2 and HO-1 in liver. A), UV and MS spectrum derived from the HPLC-MS analysis of PHAR dissolved in methanol for the identification of peaks associated with the compound. A blue rectangle surrounds the mass associated with PHAR. (B-D), the mice were treated with the vehicle (Tween-80+PBS, 1:13), 50 mg/kg of PHAR, or 50 mg/kg of SFN (saline) as a positive control by means of intraperitoneal (IP) injection for 2 hours. B), HPLC-MS UV and MS spectra derived from representative liver samples of both experimental groups used for determining PHAR levels in the liver 120 min after a single IP injection of 50 mg/kg. A blue rectangle surrounds the mass associated with PHAR. C), representative immunoblots showing NRF2, HO1, and LAMINB protein levels as the liver extract loading control. D), densitometric analysis of NRF2 protein levels of the representative immunoblots shown in (C), expressed as a ratio of NRF2/LAMINB. Statistical analysis was performed with one-way ANOVA followed by the Bonferroni test to compare inter-group differences. ***p<0.001 vs. vehicle. E) and F), the mice were treated daily with vehicle (Tween-80+PBS, 1:13) or 50 mg/kg of PHAR by means of intraperitoneal injection for 5 days. E), representative immunoblots showing NRF2, HO1, and LAMINB protein levels as loading control in brain, liver and kidney. F), densitometric analysis of NRF2 and HO1 protein levels in the liver tissue of the representative immunoblots shown in (E), expressed as a ratio of NRF2/LAMINB or HO1/LAMINB levels. Statistical analysis was performed with a Student t test to compare inter-group differences. **p<0.01 vs. vehicle.
Once the mechanism of action of PHAR was deciphered, the capacity thereof to induce NRF2 levels in a murine model was evaluated. C57BL/6 mice received a single intraperitoneal (IP) injection of 50 mg/kg PHAR (Tween-80+PBS, 1:13) or 50 mg/kg of SFN (saline) as a positive control. The UV spectrum derived from the HPLC-MS study of the PHAR compound dissolved in methanol alone helped the identification of the peak associated with the compound for subsequent identification in the tissue analysis. […] Taking this as a reference point, liver tissue analysis was performed to check for the presence of PHAR therein.
For this reason, C57BL/6 mice were treated daily by IP route for 5 days with 50 mg/kg of vehicle or 50 mg/kg of PHAR.

[2] = system: C57BL/6 mice treated with LPS; assay: Inflammatory response in LPS-treated mice; type: in vivo, mouse
Protocol: FIG. 11. PHAR reduces the inflammatory response in LPS-treated mice. The mice were divided into 4 experimental groups (n=4). Experimental groups 1 and 3 were treated by IP route with vehicle (Tween-80+PBS, 1:13) and experimental groups 2 and 4 with 50 mg/kg of PHAR for 5 days. After the second-to-last administration of the compound, groups 3 and 4 were treated by IP route with 1 mg/kg of LPS for 24 h. Two hours after the last dose of PHAR and twenty-four hours after the administration of LPS, all the mice were sacrificed by extracting the liver protein and total RNA, A), representative immunoblots showing NRF2, HO1, and GAPDH protein levels as the liver extract loading control. B), densitometric analysis of NRF2 and HO1 protein levels of the representative immunoblots shown in (A), expressed as a ratio of NRF2/GAPDH or HO1/GAPDH. The data is depicted as means±SEM (n=4). Statistical analysis was performed with one-way ANOVA followed by the Bonferroni test to compare inter-group differences. **p<0.01; ***p<0.001 vs. vehicle. C), the mRNA levels of Il1β, Il6, and Tnfα were determined by means of qRT-PCR and normalized by means of average Gapdh, Tbp, and β-actin. The data is depicted as mean±SEM (n=4). Statistical analysis was performed with one-way ANOVA followed by the Bonferroni test to check inter-group differences. ***p<0.001 vs. LPS. D) Representative images of hematoxylin and eosin (H&E) staining of mouse liver and immunohistochemical F4/80 staining of inflammatory liver macrophages (Kupffer cells).
To that end, 16 wild-type C57BL/6 mice were divided into 4 experimental groups: vehicle (experimental group 1), PHAR (experimental group 2), LPS (3), and LPS+PHAR (4). After obtaining results as promising as those described in detail in Example 1.6, the inventors decided to carry out the same experimental protocol. Briefly, the mice were treated daily by IP route with 50 mg/kg of PHAR (experimental groups 2 and 4) or vehicle (groups 1 and 3). Two hours after the second-to-last administration, experimental groups 3 and 4 were treated by IP route with […] of LPS. Lastly, the last dose of PHAR was administered on the last day and 24 h after the administration of LPS, all the mice were sacrificed by extracting the liver protein and total RNA.

[3] = mice, IP 50 mg/kg PHAR daily for 5 days

In the case of O=C1[C@@H]2[C@H](Cc3c[nH]c4ccccc34)N[C@]3(C(=O)Nc4ccc(Cl)cc43)[C@@H]2C(=O)N1c1ccc2c(c1)OCCO2 [PHAR], the “HO1 levels in kidney” value ([1]; IP 50 mg/kg daily for 5 days) is reported as “not further increased”, the “NRF2 and HO1 levels in brain” value ([1]; IP 50 mg/kg daily for 5 days) is reported as “not modified” and the “NRF2 and HO-1 in liver” value ([1]; IP 50 mg/kg daily for 5 days, 120 minutes after last administration) is reported as “significant increase of NRF2 and HO-1 in liver”. The “liver HO-1 levels” value ([1]; single IP 50 mg/kg, 120 min) was “did not result in increased HO-1 levels”, the “liver NRF2 levels” value ([1]; single IP 50 mg/kg, 120 min) was “significant NRF2 accumulation” and the “inflammatory activation of hepatic macrophages (Kupffer cells), F4/80 immunostaining” value ([2]; LPS+PHAR-treated versus LPS-treated mice) was “reduction in F4/80 staining; also recorded: greatly attenuated”. The “liver mRNA of pro-inflammatory cytokines (Il1β, Il6, Tnfα)” value ([2]; LPS-treated mice, prior IP 50 mg/kg PHAR) was “significant reduction in the production of said cytokines”, the “liver HO-1 levels” value [2, 3] was “induction mediated by the compound could be clearly seen” and the “liver NRF2 levels” value [2, 3] was “increase in NRF2 levels”. The “liver structure (H&E)” value ([2]; mice, IP 50 mg/kg PHAR for 5 days) was “remains unaltered” and the “liver NRF2 and HO-1 levels with combined treatment PHAR+LPS” value ([2]; mice, IP 50 mg/kg PHAR for 5 days plus LPS 24 h) was “synergistic effect”.
